Source: patent US20170042171A1, “METHOD OF HANDLING MANGOES” (AGROFRESH, INC., priority 2011, published 2017)

What was measured:
[1] = test system: Mangos, Tommy Atkins variety; assay: Pulp firmness of mangoes after 1-MCP at different concentrations with or without modified B bag, shelf-storage simulation (Example 2); assay type: in vivo, Mangifera indica; settings: for Pulp Firmness Difference from Control: 10° C. 15 hours, then ca. 22° C. three days
Method: (§1) Mangoes were evaluated for peel and pulp firmness, which are commercial measures of mango quality, using the following test procedure: • Determination of peel resistant to penetration (peel firmness) was accomplished using a Chatillon penetrometer (model DPPH-100) equipped with a chisel tip (6 mm wide). • Readings were obtained choosing randomly six fruit from each treatment. Each fruit was placed by the side on the penetrometer and then the tip of the instrument (chisel) was stalled into the fruit (about 8 mm deep). Six fruits per treatment were selected and readings were used for obtaining the average value of peel firmness for each treatment. • For testing flesh firmness, the other side of the fruit selected for testing peel resistant to penetration was used. The side not tested for peel resistance to penetration was peeled using a standard fruit peeler (which removed approximately a 2 mm thick peel tissue section). The total area peeled was approximately five square centimeters. • Immediately after removing the peel, each fruit was placed on the penetrometer and a new value of firmness was obtained using the chisel tip (to a depth of about 8 mm). Average values were calculated using six fruits per treatment.
This experiment utilized a modified version of the “B bag”. Rather than three layers, the bag consisted of two extruded layers in an 80/20 ratio with the following composition:
The film was perforated using a laser to give an average hole diameter of 104 micrometers with 52 perforations per bag in four rows. The OTR of the bag was ca. 370 cc/hour.
Mangos, Tommy Atkins variety imported from Guatemala, were kept at a temperature of 10° C. for three days. Portions of the mangos were subjected to one of eight different treatments; control (no 1-MCP or bag), 1-MCP only at 500 ppb, bag only, and bag plus one of five different 1-MCP application rates (50, 100, 500, 1000, and 2500 ppb). Each mango weighed ca. 1.1 Kg. For those mangos placed in bags, the bag contained four fruits for a total of 4.4 Kg of fruit per bag. The 1-MCP applications were made at a temperature of 10° C. for 15 hours. The control and each treated sample were then kept at room temperature (ca. 22° C.) for three days to simulate shelf-storage. Bags were kept closed during the shelf-storage simulation. Pulp firmness was then determined with the following results: […]

[2] = test system: mangoes, Tommy Adkins cultivar; assay: Pulp firmness of mangoes after MAP bag and/or 1-MCP exposure prior to transport simulation (Example 1); assay type: in vivo, Mangifera indica
Method: as §1
Fruit was harvested from a commercial mango farm (Mango Rica S.A.) located in Liberia, Guanacaste. Costa Rica on Apr. 7, 2011. […]

In the case of `CC1=CC1` [1-MCP, 1-methylcyclopropene], the “Pulp Firmness Difference from Control” value ([1]; Treatment 1: 1-MCP 500 ppb, Bag No) is reported as 0.43 Lb, the “Pulp Firmness Difference from Control” value ([1]; Treatment 3: 1-MCP 50 ppb, Bag Yes) is reported as 2.00 Lb and the “Pulp Firmness Difference from Control” value ([1]; Treatment 4: 1-MCP 100 ppb, Bag Yes) is reported as 2.70 Lb. The “Pulp Firmness Difference from Control” value ([1]; Treatment 5: 1-MCP 500 ppb, Bag Yes) was 3.35 Lb, the “Pulp Firmness Difference from Control” value ([1]; Treatment 6: 1-MCP 1000 ppb, Bag Yes) was 2.60 Lb and the “Pulp Firmness Difference from Control” value ([1]; Treatment 7: 1-MCP 2500 ppb, Bag Yes) was 3.29 Lb. The “expected additive effect of the 1-MCP treatment and MAP bag alone on pulp firmness” value ([1]; sum of 1-MCP 500 ppb alone and bag alone) was 1.96 lb, the “Mango Pulp Firmness Difference (Reported as change from control*)” value ([2]; 6 mangoes per bag, 500 ppb 1-MCP for 12 hours prior to transport simulation (10-12° C., 18 days), then 18° C.) was −0.03 Lbs and the “mango quality based on pulp firmness (in words)” value ([2]; MCP exposure prior to transport simulation) was “did not improve the quality of the mangoes”.
